The assay relates to intertrigo. As to the kind of experiment: Topical application of the skin salve to patients suffering from intertrigo. It counts as in vivo, human. Particulars: Example 2: person with diabetes, underside of breasts; before use of the skin salve. On the procedure: In this experiment the skin salve made in Example 1 was evaluated on a person suffering from diabetes and intertrigo on the underside of their breasts. The intertrigo had caused the skin to be inflamed, burned, and was raw in some areas. This skin condition was painful and was aggravated by the patient's bra, heat, and sweat. Additionally, the intertrigo was an unsightly rash.
This patient had treated their intertrigo with a variety of over-the-counter salves and powders without success.
This patient topically applied the skin salve of this invention which was made by the procedure described in Example 1 to the inflamed skin under their breasts on two consecutive evenings after taking a bath. […]
In this experiment the skin salve made in Example 1 was evaluated on another person suffering from diabetes and intertrigo on the underside of their breasts. […]
In this experiment the skin salve made in Example 1 was evaluated on another person suffering from intertrigo on the underside of their breasts. […]
In this experiment the skin salve made in Example 1 was evaluated on a person suffering from intertrigo on the underside of their breasts. […]
In this experiment the skin salve made in Example 1 was evaluated on a person suffering from intertrigo on the underside of their breasts and the underside of their belly. […]

The results in this text go back to patent publication US9463211B2, “Skin salve for treating intertrigo” (priority 2007, dated 2016).

SMILES strings stand for the structures.

For the compound `CC(C)O` [isopropyl alcohol], the “effect on intertrigo of the patient's earlier treatments” value was “without any relief”.
